Data on 49 compounds can be found in US20230159509A1 (Amathus Therapeutics, Inc., priority 2020, published 2023).

The test addresses T1, TRAP1 enzyme (Homo sapiens, UniProt Q12931).
T1 construct: 150 nM Trap1 enzyme was incubated with various concentrations of the test compound
T1 sequence (Q12931 60-704): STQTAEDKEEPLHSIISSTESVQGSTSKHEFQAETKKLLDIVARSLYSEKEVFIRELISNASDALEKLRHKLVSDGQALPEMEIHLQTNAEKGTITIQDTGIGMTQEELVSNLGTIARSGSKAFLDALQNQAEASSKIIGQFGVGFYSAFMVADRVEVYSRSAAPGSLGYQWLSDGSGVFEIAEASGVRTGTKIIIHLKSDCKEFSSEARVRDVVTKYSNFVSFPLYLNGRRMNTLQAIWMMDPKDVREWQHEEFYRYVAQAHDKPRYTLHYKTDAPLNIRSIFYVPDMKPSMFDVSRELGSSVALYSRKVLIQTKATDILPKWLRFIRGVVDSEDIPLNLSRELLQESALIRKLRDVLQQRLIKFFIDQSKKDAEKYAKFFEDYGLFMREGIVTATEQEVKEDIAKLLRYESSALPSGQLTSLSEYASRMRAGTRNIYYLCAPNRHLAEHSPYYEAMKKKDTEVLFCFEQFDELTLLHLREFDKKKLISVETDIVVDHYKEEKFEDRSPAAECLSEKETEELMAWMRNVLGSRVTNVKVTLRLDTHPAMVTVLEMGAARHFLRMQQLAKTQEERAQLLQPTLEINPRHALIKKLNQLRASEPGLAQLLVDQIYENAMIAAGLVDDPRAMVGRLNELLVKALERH
Description: ADP Glo assay of TRAP1 ATPase activity. The test is classed as biochemical. To be noted: 1 h; compound concentration 50 μM; read-out: ADP-Glo Percent Activation at 50 μM. The method, boiled down:
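ADP-Glo luminescence quantifying ADP from 150 nM TRAP1 preincubated 30 min at 37° C with compound (0.79–100 μM), then 20 μM ATP for 60 min at 37° C. Buffer: 25 mM Pipes pH 7.5, 40 mM KCl, 0.05 mM MgCl2, EGTA, BSA, detergents. ADP from ATP/ADP standard curve; Emax and EC50 from sigmoidal fit.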
A general note: ADP-Glo turns the ADP formed in a reaction into a luminescent signal.

The structures appear in SMILES notation.

As to `COc1ncc(NC(=O)c2ccn3cnnc3c2)cc1S(=O)(=O)Nc1c(C)cccc1C` [compound 2526], the activation at 50 µM fell in the range of 120 to 150%.
`COc1ncc(NC(=O)c2c3c(nn2C)CCC3)cc1S(=O)(=O)Nc1c(C)cccc1C` [compound 2528]: the activation at 50 µM lay in the range of 181 to 352%.
For `COc1ncc(NC(=O)c2ccc(C#N)cc2)cc1S(=O)(=O)Nc1c(C)cccc1C` [compound 2529], the activation at 50 µM was in the range of 181 to 352%.
On to `COc1ncc(NC(=O)c2ccc(OC(F)(F)F)cc2)cc1S(=O)(=O)Nc1c(C)cccc1C` [compound 2531], for which the activation at 50 µM was 120 to 150%.
As to `COc1ncc(NC(=O)c2ccc(N3CCCC3=O)cc2)cc1S(=O)(=O)Nc1c(C)cccc1C` [compound 2532], the activation at 50 µM lay within 151 to 180%.
Consider `COc1ncccc1C(=O)Nc1cnc(OC)c(S(=O)(=O)Nc2c(C)cccc2C)c1` [compound 2535], for which the activation at 50 µM is 151 to 180%.
As to `COc1ncc(NC(=O)c2cccc(C(F)(F)F)c2)cc1S(=O)(=O)Nc1c(C)cccc1C` [compound 2536], the activation at 50 µM was 151 to 180%.
Regarding `COc1ncc(NC(=O)c2ccc3ncnn3c2)cc1S(=O)(=O)Nc1c(C)cccc1C` [compound 2537], the activation at 50 µM lay in the range of 120 to 150%.
For `COc1ncc(NC(=O)c2cn(C(C)C)nn2)cc1S(=O)(=O)Nc1c(C)cccc1C` [compound 2538] the value was 120 to 150%; for `COc1ncc(NC(=O)c2cccn2C)cc1S(=O)(=O)Nc1c(C)cccc1C` [compound 2539], 181 to 352%.
The same measure for `COc1ncc(NC(=O)c2ccc3c(c2)nnn3C)cc1S(=O)(=O)Nc1c(C)cccc1C` [compound 2541]: 120 to 150%; for `COc1ncc(NC(=O)c2ccc(F)cc2)cc1S(=O)(=O)Nc1c(C)cccc1C` [compound 2542]: 151 to 180%.
For `COc1ncc(NC(=O)c2cncc(N(C)C)n2)cc1S(=O)(=O)Nc1c(C)cccc1C` [compound 2543] the value was 181 to 352%; for `COc1ncc(NC(=O)c2ccc(N3CCCCC3)nc2)cc1S(=O)(=O)Nc1c(C)cccc1C` [compound 2544], 181 to 352%; for `COc1cncc(C(=O)Nc2cnc(OC)c(S(=O)(=O)Nc3c(C)cccc3C)c2)c1` [compound 2545], 151 to 180%.
Regarding `COc1cnccc1C(=O)Nc1cnc(OC)c(S(=O)(=O)Nc2c(C)cccc2C)c1` [compound 2546], the activation at 50 µM was in the range of 120 to 150%.
The same measure for `CCN1CCN(Cc2ccccc2C(=O)Nc2cnc(OC)c(S(=O)(=O)Nc3c(C)cccc3C)c2)CC1` [compound 2547]: 120 to 150%.
As for `COc1ncc(NC(=O)c2ccccc2C)cc1S(=O)(=O)Nc1c(C)cccc1C` [compound 2548], the activation at 50 µM was in the range of 181 to 352%.
Regarding `COc1cccnc1C(=O)Nc1cnc(OC)c(S(=O)(=O)Nc2c(C)cccc2C)c1` [compound 2549], the activation at 50 µM lay within 120 to 150%.
Take `COc1ncc(NC(=O)c2ccccc2C(F)(F)F)cc1S(=O)(=O)Nc1c(C)cccc1C` [compound 2550]: the activation at 50 µM was 151 to 180%.
In the case of `COc1ncc(NC(=O)c2cn(C)nc2C(F)F)cc1S(=O)(=O)Nc1c(C)cccc1C` [compound 2551], the activation at 50 µM was 120 to 150%.
`COc1ncc(NC(=O)c2cnn(C3CC3)c2)cc1S(=O)(=O)Nc1c(C)cccc1C` [compound 2552]: the activation at 50 µM lay within 151 to 180%.
Take `COc1ncc(NC(=O)c2ccnn2C(C)C)cc1S(=O)(=O)Nc1c(C)cccc1C` [compound 2553]: the activation at 50 µM lay within 120 to 150%.
For `COc1ncc(NC(=O)c2ccc(N3CCOCC3)nc2)cc1S(=O)(=O)Nc1c(C)cccc1C` [compound 2554], the activation at 50 µM fell in the range of 181 to 352%.
Consider `COc1ncc(NC(=O)c2cc(C(C)C)no2)cc1S(=O)(=O)Nc1c(C)cccc1C` [compound 2555], for which the activation at 50 µM lay within 181 to 352%.
For `COc1ccc(C(=O)Nc2cnc(OC)c(S(=O)(=O)Nc3c(C)cccc3C)c2)cn1` [compound 2556], the activation at 50 µM was in the range of 151 to 180%.
For `COc1ncc(NC(=O)c2cnn3c2CCC3)cc1S(=O)(=O)Nc1c(C)cccc1C` [compound 2557] the value was 151 to 180%; for `COc1ncc(NC(=O)c2nc3ccccn3n2)cc1S(=O)(=O)Nc1c(C)cccc1C` [compound 2558], 151 to 180%; for `COc1ncc(NC(=O)c2ccnn2C)cc1S(=O)(=O)Nc1c(C)cccc1C` [compound 2559], 120 to 150%.
`COc1ncc(NC(=O)c2ccc(S(=O)(=O)NC(C)(C)C)cc2)cc1S(=O)(=O)Nc1c(C)cccc1C` [compound 2561]: the activation at 50 µM is 181 to 352%.
Consider `COc1ncc(NC(=O)c2ccn(C3CC3)n2)cc1S(=O)(=O)Nc1c(C)cccc1C` [compound 2562], for which the activation at 50 µM lay within 181 to 352%.
On to `COc1ncc(NC(=O)c2cc(C)n(C)n2)cc1S(=O)(=O)Nc1c(C)cccc1C` [compound 2564], for which the activation at 50 µM fell in the range of 120 to 150%.
Regarding `COc1ncc(NC(=O)c2ccccc2CN(C)C)cc1S(=O)(=O)Nc1c(C)cccc1C` [compound 2566], the activation at 50 µM was in the range of 120 to 150%.
With `COc1ncc(NC(=O)c2ccn3ncnc3c2)cc1S(=O)(=O)Nc1c(C)cccc1C` [compound 2567], the activation at 50 µM was in the range of 120 to 150%.
With `COc1ncc(NC(=O)c2ccc(OC3COC3)cc2)cc1S(=O)(=O)Nc1c(C)cccc1C` [compound 2568], the activation at 50 µM lay in the range of 181 to 352%.
The same measure for `COc1ncc(NC(=O)c2cnsn2)cc1S(=O)(=O)Nc1c(C)cccc1C` [compound 2569]: 120 to 150%; for `COc1ncc(NC(=O)c2ccc(CN3CCOCC3)cc2)cc1S(=O)(=O)Nc1c(C)cccc1C` [compound 2570]: 181 to 352%.
In the case of `COc1ncc(NC(=O)c2ncn(C)c2C)cc1S(=O)(=O)Nc1c(C)cccc1C` [compound 2571], the activation at 50 µM lay in the range of 151 to 180%.
`COc1ncc(NC(=O)c2cccc(CN3CCOCC3)c2)cc1S(=O)(=O)Nc1c(C)cccc1C` [compound 2572]: the activation at 50 µM is 181 to 352%.
For `COc1ncc(NC(=O)c2cc3n(n2)CCCC3)cc1S(=O)(=O)Nc1c(C)cccc1C` [compound 2573] the value was 151 to 180%; for `COc1ncc(NC(=O)c2cccc3c2CCCC3)cc1S(=O)(=O)Nc1c(C)cccc1C` [compound 2574], 151 to 180%; for `COc1cc(C(=O)Nc2cnc(OC)c(S(=O)(=O)Nc3c(C)cccc3C)c2)ccn1` [compound 2575], 151 to 180%.
As to `COc1ncc(NC(=O)c2ccc3c(c2)OCCN3C)cc1S(=O)(=O)Nc1c(C)cccc1C` [compound 2576], the activation at 50 µM lay in the range of 181 to 352%.
Regarding `COc1ncc(NC(=O)c2cnn3c2OCCC3)cc1S(=O)(=O)Nc1c(C)cccc1C` [compound 2577], the activation at 50 µM was 120 to 150%.
As to `COc1ncc(NC(=O)c2ccc(N3CCN(C)CC3)cc2)cc1S(=O)(=O)Nc1c(C)cccc1C` [compound 2578], the activation at 50 µM is 181 to 352%.
Take `COc1ncc(NC(=O)c2ccc(S(C)(=O)=O)cc2)cc1S(=O)(=O)Nc1c(C)cccc1C` [compound 2580]: the activation at 50 µM fell in the range of 120 to 150%.
In the case of `COc1ncc(NC(=O)c2ccccc2[S@+](C)[O-])cc1S(=O)(=O)Nc1c(C)cccc1C` [compound 2581], the activation at 50 µM lay in the range of 151 to 180%.
As to `COc1ncc(NC(=O)c2c(C)nn(C)c2Cl)cc1S(=O)(=O)Nc1c(C)cccc1C` [compound 2582], the activation at 50 µM was in the range of 120 to 150%.
As for `COc1cccc(C(=O)Nc2cnc(OC)c(S(=O)(=O)Nc3c(C)cccc3C)c2)n1` [compound 2583], the activation at 50 µM was in the range of 181 to 352%.
